How the values were obtained:
[1] = target: Stimulator of interferon genes protein (Homo sapiens, UniProt Q86WV6, G230A/R293Q/R71H); experiment: Inhibition of cGAMP-induced STING HAQ mutant transfected in human THP1-Blue ISG cells preincubated with compound for 6 hrs followed by cGAMP addition and measured after 18 hrs by QUANTI-Blue based microplate reader analysis; type: cell-based
[2] = Cytotoxicity against human THP1-Blue ISG cells assessed as inhibition of cell growth at 10 uM incubated for 24 hrs by MTS assay relative to control; type: toxicity, cell-based
[3] = Metabolic stability in mouse plasma assessed as half life in presence of NADPH by LC-MS/MS analysis; type: ADME, cell-free

Stimulator of interferon genes protein, sequence (Q86WV6 whole entry R71H/G230A/R293Q): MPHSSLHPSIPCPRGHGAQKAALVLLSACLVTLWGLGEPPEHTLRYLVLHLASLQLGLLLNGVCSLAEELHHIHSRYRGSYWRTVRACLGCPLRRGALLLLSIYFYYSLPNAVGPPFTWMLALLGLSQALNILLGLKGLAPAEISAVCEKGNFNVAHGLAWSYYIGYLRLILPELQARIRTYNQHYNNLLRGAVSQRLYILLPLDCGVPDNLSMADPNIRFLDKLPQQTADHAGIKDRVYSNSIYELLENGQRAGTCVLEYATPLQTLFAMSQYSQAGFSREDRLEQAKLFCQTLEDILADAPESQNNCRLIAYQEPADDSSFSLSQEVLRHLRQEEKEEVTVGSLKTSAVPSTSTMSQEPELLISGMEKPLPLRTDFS

CCC(=O)Nc1cc(NC(=O)c2ccc(Oc3ccc(C4C(C(N)=O)c5ccccc5C(=O)N4c4ccc(C(C)(C)C)c(Cl)c4)cc3)cc2)ccc1O (configuration not stated)
IC50 [1]: > 10000 nM
inhibition at 24 h, 10 µM [2]: 7.5%

CC(C)(C)c1ccc(N2C(=O)c3ccccc3C(C(N)=O)C2c2ccc(Nc3ccc(C(=O)Nc4ccc(O)c(NS(C)(=O)=O)c4)cc3)cc2)cc1Cl (configuration not stated)
IC50 [1]: 3200 nM
inhibition at 24 h, 10 µM [2]: 0%

CC(C)(C)c1ccc(N2C(=O)c3ccccc3C(C(N)=O)C2c2ccc(Oc3ccc(C(=O)Nc4ccc(O)c(NS(C)(=O)=O)c4)cc3)cc2)cc1Cl (configuration not stated)
IC50 [1]: > 10000 nM
inhibition at 24 h, 10 µM [2]: 33.8%

CC(C)(C)c1ccc(N2C(=O)c3ccccc3C(C(N)=O)C2c2cc3cc(-c4ccc(C(=O)Nc5ccc(O)c(NS(C)(=O)=O)c5)cn4)ccc3o2)cc1Cl (configuration not stated)
IC50 [1]: 140 nM
inhibition at 24 h, 10 µM [2]: 45.7%

CC(=O)Nc1cc(NC(=O)c2ccc(Oc3ccc(C4C(C(N)=O)c5ccccc5C(=O)N4c4ccc(C(C)(C)C)c(Cl)c4)cc3)cc2)ccc1C (configuration not stated)
IC50 [1]: > 10000 nM
inhibition at 24 h, 10 µM [2]: 11.6%

CN1C(=O)c2ccccc2C(C(N)=O)C1c1cc2cc(-c3ccc(C(=O)Nc4ccc(O)c(NS(C)(=O)=O)c4)cc3)ccc2o1 (configuration not stated)
IC50 [1]: 6500 nM
inhibition at 24 h, 10 µM [2]: 57.9%

CS(=O)(=O)Nc1cc(NC(=O)c2ccc(-c3ccc4oc(C5C(C(N)=O)c6ccccc6C(=O)N5c5ccccc5)cc4c3)cc2)ccc1O (configuration not stated)
IC50 [1]: 3600 nM
inhibition at 24 h, 10 µM [2]: 23%

CC(C)(C)c1ccc(N2C(=O)c3ccccc3C(C(N)=O)C2c2cc3cc(-c4ccc(C(=O)Nc5ccc(N)c(NS(C)(=O)=O)c5)cc4)ccc3o2)cc1Cl (configuration not stated)
IC50 [1]: > 10000 nM
inhibition at 24 h, 10 µM [2]: 28.5%

CS(=O)(=O)Nc1cc(NC(=O)c2ccc(-c3ccc4oc(C5C(C(N)=O)c6ccccc6C(=O)N5c5ccc(C6CC6)c(Cl)c5)cc4c3)cc2)ccc1O (configuration not stated)
IC50 [1]: 110 nM
inhibition at 24 h, 10 µM [2]: 61.5%

CN(c1ccc(C(=O)Nc2ccc(O)c(NS(C)(=O)=O)c2)cc1)c1ccc(C2C(C(N)=O)c3ccccc3C(=O)N2c2ccc(C(C)(C)C)c(Cl)c2)cc1 (configuration not stated)
IC50 [1]: 820 nM
inhibition at 24 h, 10 µM [2]: 1.2%

CC(C)(C)c1ccc(N2C(=O)c3ccccc3C(C(N)=O)C2c2ccc(Oc3ccc(C(=O)Nc4ccc(NS(C)(=O)=O)cc4)cc3)cc2)cc1Cl (configuration not stated)
IC50 [1]: > 10000 nM
inhibition at 24 h, 10 µM [2]: 13.7%

CC(C)(C)c1ccc(N2C(=O)c3ccccc3C(C(N)=O)C2c2ccc(Oc3ccc(C(=O)Nc4ccc(O)cc4)cc3)cc2)cc1Cl (configuration not stated)
IC50 [1]: > 10000 nM
inhibition at 24 h, 10 µM [2]: 29.4%

CC(C)(C)c1ccc(N2C(=O)c3ccccc3C(C(N)=O)C2c2cc3cc(-c4ccc(C(=O)Nc5cc(O)cc(NS(C)(=O)=O)c5)cc4)ccc3o2)cc1Cl (configuration not stated)
IC50 [1]: > 10000 nM
inhibition at 24 h, 10 µM [2]: 46.2%

CC(C)(C)c1ccc(N2C(=O)c3ccccc3C(C(N)=O)C2c2cc3cc(-c4ccc(C(=O)NC5CCN(S(C)(=O)=O)CC5)cc4)ccc3o2)cc1Cl (configuration not stated)
IC50 [1]: > 10000 nM
inhibition at 24 h, 10 µM [2]: 35.2%

CCS(=O)(=O)Nc1cc(NC(=O)c2ccc(-c3ccc4oc(C5C(C(N)=O)c6ccccc6C(=O)N5c5ccc(C(C)(C)C)c(Cl)c5)cc4c3)cc2)ccc1O (configuration not stated)
half-life [3]: > 4 h
IC50 [1]: 200 nM
inhibition at 24 h, 10 µM [2]: 11.1%

CC(=O)Nc1cc(NC(=O)c2ccc(Oc3ccc(C4C(C(N)=O)c5ccccc5C(=O)N4c4ccc(C(C)(C)C)c(Cl)c4)cc3)cc2)ccc1O (configuration not stated)
IC50 [1]: 2500 nM
inhibition at 24 h, 10 µM [2]: 67.2%

CC(C)(C)c1ccc(N2C(=O)c3ccccc3C(C(N)=O)C2c2cc3cc(-c4ccc(C(=O)N[C@H]5CC[C@@H](O)CC5)cc4)ccc3o2)cc1Cl (some centres not stated)
IC50 [1]: > 10000 nM
inhibition at 24 h, 10 µM [2]: 59.6%

CC(C)(C)c1ccc(N2C(=O)c3cc(F)ccc3C(C(N)=O)C2C2=Cc3cc(-c4ccc(C(=O)Nc5ccc(O)c(NS(C)(=O)=O)c5)cc4)ccc3S2(=O)=O)cc1Cl (configuration not stated)
IC50 [1]: 720 nM
inhibition at 24 h, 10 µM [2]: 12.7%

CC(C)(C)c1ccc(N2C(=O)c3ccccc3C(C(N)=O)C2c2cc3cc(-c4ncc(C(=O)Nc5ccc(O)c(NS(C)(=O)=O)c5)cn4)ccc3o2)cc1Cl (configuration not stated)
IC50 [1]: > 10000 nM
inhibition at 24 h, 10 µM [2]: 20.4%

CC(C)(C)c1ccc(N2C(=O)c3ccccc3C(C(N)=O)C2c2ccc(Oc3ccc(C(=O)Nc4cc(F)c(O)c(F)c4)cc3)cc2)cc1Cl (configuration not stated)
IC50 [1]: 3200 nM
inhibition at 24 h, 10 µM [2]: 44.5%

CC(C)(C)c1ccc(N2C(=O)c3ccccc3C(C(N)=O)C2c2cc3cc(-c4ccc(C(=O)Nc5ccc(O)c(NS(=O)(=O)C(F)(F)F)c5)cc4)ccc3o2)cc1Cl (configuration not stated)
IC50 [1]: > 10000 nM
inhibition at 24 h, 10 µM [2]: 20.2%

CC(C)(C)c1ccc(N2C(=O)c3ccccc3C(C(N)=O)C2c2cc3cc(-c4ccc(NC(=O)c5cc(O)cc(NS(C)(=O)=O)c5)cc4)ccc3s2)cc1Cl (configuration not stated)
IC50 [1]: > 10000 nM
inhibition at 24 h, 10 µM [2]: 50.2%

CC(C)(C)c1ccc(N2C(=O)c3ccccc3C(C(N)=O)C2c2ccc3oc(-c4ccc(C(=O)Nc5ccc(O)c(NS(C)(=O)=O)c5)cc4)cc3c2)cc1Cl (configuration not stated)
IC50 [1]: 2800 nM
inhibition at 24 h, 10 µM [2]: 14%

CC(C)(C)c1ccc(N2C(=O)c3ccccc3C(C(N)=O)C2c2cc3cc(-c4ccc(C(=O)Nc5ccc(O)c(NS(C)(=O)=O)c5)cc4)ccc3s2)cc1Cl (configuration not stated)
IC50 [1]: 440 nM
inhibition at 24 h, 10 µM [2]: 15.9%

CC(C)(C)c1ccc(N2C(=O)c3ccccc3C(C(=O)O)C2c2cc3cc(-c4ccc(C(=O)Nc5ccc(O)c(NS(C)(=O)=O)c5)cc4)ccc3s2)cc1Cl (configuration not stated)
IC50 [1]: > 10000 nM
inhibition at 24 h, 10 µM [2]: 0%

CS(=O)(=O)Nc1cc(NC(=O)c2ccc(-c3ccc4oc(C5C(C(N)=O)c6ccccc6C(=O)N5c5ccc(Br)c(Cl)c5)cc4c3)cc2)ccc1O (configuration not stated)
IC50 [1]: 270 nM
inhibition at 24 h, 10 µM [2]: 65.1%

CS(=O)(=O)Nc1cc(NC(=O)c2ccc(-c3ccc4oc(C5C(C(N)=O)c6ccccc6C(=O)N5c5ccc(C6CC6)cc5)cc4c3)cc2)ccc1O (configuration not stated)
IC50 [1]: 270 nM
inhibition at 24 h, 10 µM [2]: 25.6%

CC(C)(C)c1ccc(N2C(=O)c3ccccc3C(C(N)=O)C2c2ccc(Oc3ccc(C(=O)Nc4ccc(CO)c(NS(C)(=O)=O)c4)cc3)cc2)cc1Cl (configuration not stated)
IC50 [1]: > 10000 nM
inhibition at 24 h, 10 µM [2]: 0%

CC(C)(C)c1ccc(N2C(=O)c3ccccc3C(C(N)=O)C2c2cc3cc(-c4ccc(C(=O)N[C@H]5CC[C@H](O)CC5)cc4)ccc3o2)cc1Cl (some centres not stated)
IC50 [1]: > 10000 nM
inhibition at 24 h, 10 µM [2]: 67%

CC(C)(C)c1ccc(N2C(=O)c3ccccc3C(C(N)=O)C2c2ccc3c(c2)C=C(c2ccc(C(=O)Nc4ccc(O)c(NS(C)(=O)=O)c4)cc2)S3(=O)=O)cc1Cl (configuration not stated)
IC50 [1]: > 10000 nM
inhibition at 24 h, 10 µM [2]: 36.1%

CC(C)(C)c1ccc(N2C(=O)c3ccccc3C(C(N)=O)C2c2ccc3sc(-c4ccc(C(=O)Nc5ccc(O)c(NS(C)(=O)=O)c5)cc4)cc3c2)cc1Cl (configuration not stated)
IC50 [1]: 180 nM
inhibition at 24 h, 10 µM [2]: 3.9%

CC(C)(C)c1ccc(N2C(=O)c3cc(F)ccc3C(C(N)=O)C2c2ccc3sc(-c4ccc(C(=O)Nc5ccc(O)c(NS(=O)(=O)C6CC6)c5)cc4)cc3c2)cc1Cl (configuration not stated)
IC50 [1]: > 10000 nM
inhibition at 24 h, 10 µM [2]: 7.7%

CC(C)(C)c1ccc(N2C(=O)c3cc(F)ccc3C(C(N)=O)C2c2ccc3sc(-c4ccc(C(=O)Nc5ccc(O)c(C(N)=O)c5)cc4)cc3c2)cc1Cl (configuration not stated)
IC50 [1]: > 10000 nM
inhibition at 24 h, 10 µM [2]: 14.7%

CC(C)(C)c1ccc(N2C(=O)c3ccccc3C(C(N)=O)C2c2cc3cc(-c4ccc(C(=O)Nc5cc(-c6ccco6)n[nH]5)cc4)ccc3o2)cc1Cl (configuration not stated)
IC50 [1]: > 10000 nM
inhibition at 24 h, 10 µM [2]: 17.8%

CC(C)(C)c1ccc(N2C(=O)c3cc(F)ccc3C(C(N)=O)C2c2ccc3sc(-c4ccc(C(=O)Nc5ccc(O)c(NS(C)(=O)=O)c5)cc4)cc3c2)cc1Cl (configuration not stated)
IC50 [1]: 950 nM
inhibition at 24 h, 10 µM [2]: 7.7%

CC(C)(C)c1ccc(N2C(=O)c3cc(F)ccc3C(C(N)=O)C2c2cc3cc(-c4ccc(C(=O)Nc5ccc(O)c(NC(=O)C(F)(F)F)c5)cc4)ccc3s2)cc1Cl (configuration not stated)
IC50 [1]: 2300 nM
inhibition at 24 h, 10 µM [2]: 12.5%

CS(=O)(=O)Nc1cc(NC(=O)c2ccc(-c3ccc4oc(C5C(C(N)=O)c6ccccc6C(=O)N5c5ccc6c(c5)CCCC6)cc4c3)cc2)ccc1O (configuration not stated)
IC50 [1]: 540 nM
inhibition at 24 h, 10 µM [2]: 38.7%

CC(C)(C)c1ccc(N2C(=O)c3ccccc3C(C(N)=O)C2c2cc3cc(-c4ccc(C(=O)Nc5ccc(O)c(NS(C)(=O)=O)c5)cc4)ccc3o2)cc1F (configuration not stated)
IC50 [1]: 100 nM
inhibition at 24 h, 10 µM [2]: 55.6%

CC(C)(C)c1ccc(N2C(=O)c3ccccc3C(C(N)=O)C2c2cc3cc(-c4ccc(C(=O)Nc5ccc(F)c(NS(C)(=O)=O)c5)cc4)ccc3o2)cc1Cl (configuration not stated)
IC50 [1]: > 10000 nM
inhibition at 24 h, 10 µM [2]: 26.8%

CC(C)(C)c1ccc(N2C(=O)c3cc(F)ccc3C(C(N)=O)C2c2cc3cc(-c4ccc(C(=O)Nc5ccc(O)c(NS(C)(=O)=O)c5)cc4)ccc3s2)cc1Cl (configuration not stated)
IC50 [1]: 450 nM
inhibition at 24 h, 10 µM [2]: 23.2%

CC(C)(C)c1ccc(N2C(=O)c3cc(F)ccc3C(C(N)=O)C2c2ccc3sc(-c4ccc(C(=O)Nc5ccc(O)c(NS(C)(=O)=O)c5)cc4F)cc3c2)cc1Cl (configuration not stated)
IC50 [1]: 800 nM
inhibition at 24 h, 10 µM [2]: 11.1%

CC(C)(C)c1ccc(N2C(=O)c3ccccc3C(C(N)=O)C2c2ccc(Oc3ccc(C(=O)Nc4cccc(NS(C)(=O)=O)c4)cc3)cc2)cc1Cl (configuration not stated)
IC50 [1]: > 10000 nM
inhibition at 24 h, 10 µM [2]: 10.5%

CC(C)(C)c1ccc(N2C(=O)c3ccccc3C(C(N)=O)C2c2cc3cc(-c4ccc(C(=O)Nc5ccc(O)c(NC(=O)C(F)(F)F)c5)cc4)ccc3o2)cc1Cl (configuration not stated)
IC50 [1]: 5800 nM
inhibition at 24 h, 10 µM [2]: 4.9%
